Assays:
[1] = molecular target: T1, cGMP-dependent protein kinase 1 (Homo sapiens) (UniProt Q13976); assay: Inhibition of human full length PKG-1beta expressed in baculovirus assessed as substrate phosphorylation using fluorescence-labelled peptides as substrate at 9 uM after 90 mins by microfluidic peptide phosphorylation assay
T1 sequence (whole entry): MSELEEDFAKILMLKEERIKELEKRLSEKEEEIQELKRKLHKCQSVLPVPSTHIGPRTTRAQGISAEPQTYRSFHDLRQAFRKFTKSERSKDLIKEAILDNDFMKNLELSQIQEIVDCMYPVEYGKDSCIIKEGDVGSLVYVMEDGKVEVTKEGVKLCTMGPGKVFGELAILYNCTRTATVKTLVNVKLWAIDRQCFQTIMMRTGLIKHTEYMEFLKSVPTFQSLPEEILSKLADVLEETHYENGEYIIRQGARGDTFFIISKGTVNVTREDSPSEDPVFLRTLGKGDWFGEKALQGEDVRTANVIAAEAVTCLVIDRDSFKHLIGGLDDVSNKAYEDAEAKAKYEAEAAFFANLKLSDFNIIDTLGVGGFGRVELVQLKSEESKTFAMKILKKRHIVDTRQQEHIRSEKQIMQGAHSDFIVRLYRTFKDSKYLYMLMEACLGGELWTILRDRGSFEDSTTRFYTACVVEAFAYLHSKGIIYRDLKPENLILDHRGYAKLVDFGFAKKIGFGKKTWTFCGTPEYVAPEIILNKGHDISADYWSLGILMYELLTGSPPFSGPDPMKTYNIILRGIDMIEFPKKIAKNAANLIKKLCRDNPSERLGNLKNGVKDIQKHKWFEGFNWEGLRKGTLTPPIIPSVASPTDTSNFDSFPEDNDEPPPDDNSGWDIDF

[2] = molecular target: T2, MAP kinase-activated protein kinase 5 (Homo sapiens) (UniProt Q8IW41); assay: Inhibition of human full length PRAK expressed in baculovirus assessed as substrate phosphorylation using fluorescence-labelled peptides as substrate at 0.1 uM after 90 mins by microfluidic peptide phosphorylation assay
T2 sequence (whole entry): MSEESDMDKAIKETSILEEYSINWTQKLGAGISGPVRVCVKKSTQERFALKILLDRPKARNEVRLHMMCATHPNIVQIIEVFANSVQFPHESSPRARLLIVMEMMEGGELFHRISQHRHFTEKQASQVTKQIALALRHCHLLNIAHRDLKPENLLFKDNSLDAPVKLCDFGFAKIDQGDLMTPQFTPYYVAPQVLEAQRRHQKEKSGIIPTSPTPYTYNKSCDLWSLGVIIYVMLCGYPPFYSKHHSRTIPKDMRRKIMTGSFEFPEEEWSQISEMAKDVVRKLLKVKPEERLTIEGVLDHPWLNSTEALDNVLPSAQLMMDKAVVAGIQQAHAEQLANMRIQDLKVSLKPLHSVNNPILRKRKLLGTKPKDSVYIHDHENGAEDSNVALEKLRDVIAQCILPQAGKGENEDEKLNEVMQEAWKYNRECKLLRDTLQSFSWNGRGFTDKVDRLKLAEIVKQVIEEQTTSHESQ

[3] = molecular target: RAF proto-oncogene serine/threonine-protein kinase (Homo sapiens) (UniProt P04049); assay: Inhibition of human truncated c-Raf expressed in baculovirus assessed as substrate phosphorylation using fluorescence-labelled peptides as substrate at 420 uM after 90 mins by microfluidic peptide phosphorylation assay
[4] = molecular target: Tyrosine-protein kinase ABL1 (Homo sapiens) (UniProt P00519); assay: Inhibition of human full-length ABL expressed in baculovirus assessed as substrate phosphorylation using fluorescence-labelled peptides as substrate at 70 uM after 90 mins by microfluidic peptide phosphorylation assay
[5] = molecular target: Tyrosine-protein kinase ABL1 (Homo sapiens) (UniProt P00519); assay: Inhibition of human full-length ABL expressed in baculovirus assessed as substrate phosphorylation using fluorescence-labelled peptides as substrate at 2 uM after 90 mins by microfluidic peptide phosphorylation assay
[6] = molecular target: T3, Protein kinase C epsilon type (Homo sapiens) (UniProt Q02156); assay: Inhibition of human truncated PKC epsilon expressed in baculovirus assessed as substrate phosphorylation using fluorescence-labelled peptides as substrate at 2 uM after 90 mins by microfluidic peptide phosphorylation assay
T3 sequence (whole entry): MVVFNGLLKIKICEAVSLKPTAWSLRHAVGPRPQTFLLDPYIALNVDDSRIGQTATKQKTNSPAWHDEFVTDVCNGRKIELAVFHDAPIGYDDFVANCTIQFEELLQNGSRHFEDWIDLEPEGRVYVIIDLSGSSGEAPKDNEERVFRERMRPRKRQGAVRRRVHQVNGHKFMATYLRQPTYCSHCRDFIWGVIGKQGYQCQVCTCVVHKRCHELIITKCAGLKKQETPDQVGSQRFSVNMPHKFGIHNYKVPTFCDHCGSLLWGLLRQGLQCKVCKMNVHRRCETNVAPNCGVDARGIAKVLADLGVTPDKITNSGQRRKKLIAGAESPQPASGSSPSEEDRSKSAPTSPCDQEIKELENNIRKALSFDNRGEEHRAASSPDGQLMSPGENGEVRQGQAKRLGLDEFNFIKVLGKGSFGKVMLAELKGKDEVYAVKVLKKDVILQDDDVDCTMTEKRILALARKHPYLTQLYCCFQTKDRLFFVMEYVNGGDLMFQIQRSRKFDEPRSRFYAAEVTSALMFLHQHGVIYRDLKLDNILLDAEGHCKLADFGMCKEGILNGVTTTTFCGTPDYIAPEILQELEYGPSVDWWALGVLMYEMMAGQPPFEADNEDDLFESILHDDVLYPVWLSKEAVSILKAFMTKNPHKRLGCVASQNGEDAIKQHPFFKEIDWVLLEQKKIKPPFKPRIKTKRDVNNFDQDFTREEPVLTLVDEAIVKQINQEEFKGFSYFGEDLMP

[7] = molecular target: Mitogen-activated protein kinase 3 (Homo sapiens) (UniProt P27361); assay: Inhibition of human full length ERK1 expressed in Escherichia coli cell assessed as substrate phosphorylation using fluorescence-labelled peptides as substrate at 8 uM after 90 mins by microfluidic peptide phosphorylation assay
[8] = molecular target: Ribosomal protein S6 kinase alpha-1 (Homo sapiens) (UniProt Q15418); assay: Inhibition of human full length RSK1 expressed in baculovirus assessed as substrate phosphorylation using fluorescence-labelled peptides as substrate at 1000 uM after 90 mins by microfluidic peptide phosphorylation assay
Chain of Ribosomal protein S6 kinase alpha-1 (Homo sapiens) (Q15418 whole entry): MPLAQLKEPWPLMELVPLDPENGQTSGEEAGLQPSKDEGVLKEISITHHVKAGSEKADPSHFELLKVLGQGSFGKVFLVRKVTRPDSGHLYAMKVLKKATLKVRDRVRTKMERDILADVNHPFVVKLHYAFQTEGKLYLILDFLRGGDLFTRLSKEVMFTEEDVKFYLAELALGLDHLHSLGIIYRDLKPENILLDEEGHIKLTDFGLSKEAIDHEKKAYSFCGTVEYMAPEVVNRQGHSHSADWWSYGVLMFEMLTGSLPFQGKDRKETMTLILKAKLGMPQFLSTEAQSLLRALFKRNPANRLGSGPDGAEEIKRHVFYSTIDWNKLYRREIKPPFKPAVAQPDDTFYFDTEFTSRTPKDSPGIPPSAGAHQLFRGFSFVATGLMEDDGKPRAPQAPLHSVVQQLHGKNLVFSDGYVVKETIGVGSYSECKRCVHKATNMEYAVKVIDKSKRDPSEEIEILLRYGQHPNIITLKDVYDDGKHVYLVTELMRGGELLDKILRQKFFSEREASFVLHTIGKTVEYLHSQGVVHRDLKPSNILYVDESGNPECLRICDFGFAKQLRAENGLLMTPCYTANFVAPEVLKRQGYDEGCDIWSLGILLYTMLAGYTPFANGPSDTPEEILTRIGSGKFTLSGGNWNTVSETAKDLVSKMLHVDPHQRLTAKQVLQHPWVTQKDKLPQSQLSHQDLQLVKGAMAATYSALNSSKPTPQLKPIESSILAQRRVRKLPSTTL

Chain of Tyrosine-protein kinase ABL1 (Homo sapiens) (P00519 whole entry, the tested form may be a part): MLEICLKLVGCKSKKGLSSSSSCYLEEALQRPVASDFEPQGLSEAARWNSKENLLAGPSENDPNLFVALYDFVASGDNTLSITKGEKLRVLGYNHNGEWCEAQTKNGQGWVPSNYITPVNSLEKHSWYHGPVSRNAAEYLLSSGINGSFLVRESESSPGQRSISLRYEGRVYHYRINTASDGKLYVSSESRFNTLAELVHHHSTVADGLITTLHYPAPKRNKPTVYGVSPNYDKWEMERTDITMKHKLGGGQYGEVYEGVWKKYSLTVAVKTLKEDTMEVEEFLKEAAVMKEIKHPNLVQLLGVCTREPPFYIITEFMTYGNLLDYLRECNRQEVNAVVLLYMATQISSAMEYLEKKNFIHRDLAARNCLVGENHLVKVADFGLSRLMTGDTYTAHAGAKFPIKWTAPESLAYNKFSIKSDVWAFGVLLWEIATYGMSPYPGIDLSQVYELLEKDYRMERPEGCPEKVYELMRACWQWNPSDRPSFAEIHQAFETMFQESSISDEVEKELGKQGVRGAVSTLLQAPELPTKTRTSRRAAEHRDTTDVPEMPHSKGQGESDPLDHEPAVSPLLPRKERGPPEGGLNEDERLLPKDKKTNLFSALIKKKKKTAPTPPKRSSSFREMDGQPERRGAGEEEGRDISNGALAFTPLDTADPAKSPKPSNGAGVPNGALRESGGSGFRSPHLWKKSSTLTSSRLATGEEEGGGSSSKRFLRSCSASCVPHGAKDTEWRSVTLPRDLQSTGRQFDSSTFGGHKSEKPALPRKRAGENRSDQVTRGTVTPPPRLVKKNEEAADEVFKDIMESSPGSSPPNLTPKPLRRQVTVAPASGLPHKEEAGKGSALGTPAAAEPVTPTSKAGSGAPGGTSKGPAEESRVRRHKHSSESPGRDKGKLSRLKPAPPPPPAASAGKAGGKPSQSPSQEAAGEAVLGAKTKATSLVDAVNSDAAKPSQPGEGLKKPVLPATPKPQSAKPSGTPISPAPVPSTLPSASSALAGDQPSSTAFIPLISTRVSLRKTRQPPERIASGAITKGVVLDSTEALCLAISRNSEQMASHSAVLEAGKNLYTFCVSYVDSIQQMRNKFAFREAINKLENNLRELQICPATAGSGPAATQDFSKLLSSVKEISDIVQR
Chain of RAF proto-oncogene serine/threonine-protein kinase (Homo sapiens) (P04049 whole entry, the tested form may be a part): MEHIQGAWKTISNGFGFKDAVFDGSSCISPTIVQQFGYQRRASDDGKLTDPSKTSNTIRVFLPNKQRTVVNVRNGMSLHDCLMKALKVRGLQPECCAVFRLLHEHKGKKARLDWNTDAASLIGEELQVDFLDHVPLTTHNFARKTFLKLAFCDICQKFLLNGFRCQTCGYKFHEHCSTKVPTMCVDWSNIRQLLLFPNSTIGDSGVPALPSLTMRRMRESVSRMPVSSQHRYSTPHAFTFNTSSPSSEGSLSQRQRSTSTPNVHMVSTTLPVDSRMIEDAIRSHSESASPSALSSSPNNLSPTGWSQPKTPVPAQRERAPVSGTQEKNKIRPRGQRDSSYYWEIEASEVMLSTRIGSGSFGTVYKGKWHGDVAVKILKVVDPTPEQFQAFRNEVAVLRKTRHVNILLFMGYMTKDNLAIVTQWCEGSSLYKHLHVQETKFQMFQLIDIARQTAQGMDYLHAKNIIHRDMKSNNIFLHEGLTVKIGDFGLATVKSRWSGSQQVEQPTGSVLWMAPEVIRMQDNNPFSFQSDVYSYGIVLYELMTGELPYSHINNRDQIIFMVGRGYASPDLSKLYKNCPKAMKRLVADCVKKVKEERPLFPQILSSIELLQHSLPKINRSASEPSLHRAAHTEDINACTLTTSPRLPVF
Chain of Mitogen-activated protein kinase 3 (Homo sapiens) (P27361 whole entry): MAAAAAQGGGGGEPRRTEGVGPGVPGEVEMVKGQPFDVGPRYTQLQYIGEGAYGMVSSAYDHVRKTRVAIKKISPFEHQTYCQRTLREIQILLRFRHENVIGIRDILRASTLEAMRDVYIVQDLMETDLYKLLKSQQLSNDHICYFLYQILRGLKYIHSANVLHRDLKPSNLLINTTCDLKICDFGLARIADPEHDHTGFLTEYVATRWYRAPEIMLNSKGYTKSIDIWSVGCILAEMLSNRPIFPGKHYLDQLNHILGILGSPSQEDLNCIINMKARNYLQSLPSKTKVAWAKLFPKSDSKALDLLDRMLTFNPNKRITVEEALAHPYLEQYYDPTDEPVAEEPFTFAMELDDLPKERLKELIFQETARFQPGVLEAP

With `NCC1CN(c2ncnc3[nH]c4cnccc4c23)CCO1` (stereo not drawn) the inhibition [1] was 12.5%.

`C[C@H](CN(C)C)Oc1nc(Nc2cc3cccc(Cl)c3cn2)cnc1C#N` showed an inhibition [2] of 3.5%.

`c1nc(N2CCOCC2)c2nc[nH]c2n1` gave an inhibition [3] of 52%.

In the case of `CNCc1ccc(-c2ncnc3[nH]cnc23)cc1`, the inhibition [4] is reported as 47.5%.

`NC1CCN(c2ncnc3[nH]ccc23)CC1` showed an inhibition [5] of 13.5% and an inhibition [6] of 2.5%.

`NCC1CCN(c2ncnc3[nH]ccc23)CC1` showed an inhibition [7] of 8.5%.

In the case of `c1cnc2[nH]ccc2c1`, the inhibition [8] is reported as 60.5%.
